Reference: patent publication US12039796B2, “Method for classifying cells” (Sartorius BioAnalytical Instruments, Inc., priority 2019, dated 2024)
Where two headings read alike, the source gives them in different places.

Experiments:
HT1080 fibrosarcoma = HT1080 fibrosarcoma apoptosis time course, multiplexed NucLight Red (viability) and Caspase 3/7 Green (apoptosis) readouts with cell-by-cell analysis; assay type: cell-based
Description: Example implementations permit cell health to be tracked in sub-populations over time. […] Cell health was determined with multiplexed readouts of Incucyte® NucLight Red (nuclear viability marker) and non-perturbing Incucyte® Caspase 3/7 Green Reagent (apoptotic indicator). […] Values shown are the mean±SEM of 3 wells.
Cell health was determined with multiplexed readouts of Incucyte® NucLight Red (nuclear viability marker) and non-perturbing Incucyte® Caspase 3/7 Green Reagent (apoptotic indicator). […] Values shown are the mean±SEM of 3 wells.

A549 cells = assay: A549 cell death concentration response, cells classed Dead or Live by Annexin V fluorescence or by label-free trained model; assay type: cell-based; conditions: Homo sapiens, A549, 72 h, 0.1-10 μM, FIG. 16C
Description: The classification methods described herein facilitate classification of cells with an accuracy that approximates the accuracy of fluorophore-based methods. This allows for accurate classification without the expense, complexity, or experimental confounding effects that may be associated with the use of fluorescent labels. In an experiment, A549 cells were treated with increasing concentrations of the cytotoxic compound camptothecin (0.1-10 μM) for 72 h in the presence of Annexin V reagent. The cells were classed as Dead or Live based on fluorescence Annexin response (live cells=low fluorescence, dead cells=high fluorescence). The metric-based methods described herein were used to train a model using label-free features of dead (10 μM, 72 h) and live (vehicle, 0-72 h) cells.

[1] = HT1080, after treatment, FIG. 6C

| Structure (SMILES) | apoptosis (HT1080 fibrosarcoma; HT1080, after treatment, FIG. 6G) | cell counts (HT1080 fibrosarcoma; HT1080, after treatment, FIG. 6G (data not shown)) | green fluorescence (late apoptosis) (HT1080 fibrosarcoma; HT1080, after 24 hours, FIG. 6C) | red and green fluorescence (early apoptosis) (HT1080 fibrosarcoma; [1]) | red population (NucLight Red, viable cells) (HT1080 fibrosarcoma; [1]) | EC50 (A549 cells; Annexin V fluorescence-based classification, read-out: Annexin V EC50 (% death)) | EC50 (A549 cells; label-free metric-based trained model classification, read-out: Label-free EC50 (% death)) |
| --- | --- | --- | --- | --- | --- | --- | --- |
| C[C@@H]1C[C@@H]([C@H](O)CC2CC(=O)NC(=O)C2)C(=O)[C@@H](C)C1 [CHX, cyclohexamide] | lack of apoptosis | decrease in cell counts | – | – | – | – | – |
| CC[C@@]1(O)C(=O)OCc2c1cc1n(c2=O)Cc2cc3ccccc3nc2-1 [camptothecin] | – | – | increasing green fluorescence after 24 hours indicating late apoptosis | increasing red and green fluorescence indicating early apoptosis | decrease in the red population | 0.66 µM | 0.53 µM |
